From PubChem BioAssay (NCI)
“And” between values parts separate entries of the source, which are not always exact repeats. Equal values may be shown once.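 The compound was tested at five concentrations on cells cultured in 96-well plates, with a 48-hour exposure period. Abbreviation: GI50, concentration required for 50% inhibition of growth. Definition used: TGI = concentration required for complete inhibition of growth.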

Legend:
Experiment in all cases: growth of human tumour cells (NCI), 48 h
DU-145 prostate = system: DU-145 prostate
HOP-62 NSCLC = system: HOP-62 NSCLC
OVCAR-8 ovarian = system: OVCAR-8 ovarian
UACC-257 melanoma = system: UACC-257 melanoma
OVCAR-5 ovarian = system: OVCAR-5 ovarian
SK-MEL-2 melanoma = system: SK-MEL-2 melanoma
A549 NSCLC = system: A549 NSCLC
786-0 renal = system: 786-0 renal
NCI-H23 lung = system: NCI-H23 lung
MDA-MB-435 = system: MDA-MB-435

| Compound | GI50 (DU-145 prostate) | TGI (DU-145 prostate) | GI50 (HOP-62 NSCLC) | TGI (HOP-62 NSCLC) | GI50 (OVCAR-8 ovarian) | TGI (OVCAR-8 ovarian) | GI50 (UACC-257 melanoma) | TGI (UACC-257 melanoma) | GI50 (OVCAR-5 ovarian) | TGI (OVCAR-5 ovarian) | GI50 (SK-MEL-2 melanoma) | TGI (SK-MEL-2 melanoma) | GI50 (A549 NSCLC) | TGI (A549 NSCLC) | GI50 (786-0 renal) | TGI (786-0 renal) | GI50 (NCI-H23 lung) | TGI (NCI-H23 lung) | GI50 (MDA-MB-435) | TGI (MDA-MB-435) |
| --- | --- | --- | --- | --- | --- | --- | --- | --- | --- | --- | --- | --- | --- | --- | --- | --- | --- | --- | --- | --- |
| CCc1c(C)nc2sc3c(N)ncnc3c2c1C | > 25 µM | > 25 µM | > 25 µM | > 25 µM | > 25 µM | > 25 µM | > 25 µM | > 25 µM | > 25 µM | > 25 µM | > 25 µM | > 25 µM | > 25 µM | > 25 µM | > 25 µM | > 25 µM | > 25 µM | > 25 µM | > 25 µM | > 25 µM |
| CC(=O)O[C@@H]1C[C@@]2(C)[C@@H]3CC=C4[C@@H](C[C@H](O)C(=O)C4(C)C)[C@]3(C)C(=O)C[C@]2(C)[C@H]1[C@@](C)(O)C(=O)/C=C/C(C)(C)OC(C)=O |  | 34.1 µM |  | 5.29 µM |  | > 49.1 µM |  | 50.4 µM |  | > 86 µM |  | > 25.4 µM |  | > 48.2 µM |  | > 70.4 µM |  | 24.1 µM |  | 37.9 µM |
| COc1cc(-c2nn(-c3cccc(NC(=O)CCN4CCN(Cc5ccccc5)CC4)c3)cc2-c2ccncc2)ccc1Cl | 1.56 µM | 10.9 µM | 1.38 µM | 12.4 µM | 2.68 µM | 11.1 µM | 1.7 µM | 3.55 µM | 3.02 µM | > 100 µM | 1.39 µM | 4.14 µM | 1.72 µM | 11.6 µM | 1.33 µM | 3.02 µM | 1.73 µM | 9.26 µM | 0.237 µM | 0.737 µM |
| COc1ccc(/C=C(/C)[N+](=O)[O-])cc1OC | 2.42 µM and 2.45 µM | 5.72 µM and 5.67 µM | 2.03 µM and 4.17 µM | 4.36 µM and 14.8 µM | 2.62 µM and 3.22 µM | 8 µM and 10 µM | 1.56 µM and 0.6 µM | 2.98 µM and 1.92 µM | 4.12 µM and 5 µM | 12.4 µM and 16.1 µM | 2.39 µM and 1.81 µM | 4.9 µM and 4 µM | 6.05 µM and 4.13 µM | 19.7 µM and 17.7 µM | 1.89 µM and 1.79 µM | 3.39 µM and 3.36 µM | 1.9 µM and 1.98 µM | 4.24 µM and 4.6 µM | 2.17 µM and 2.1 µM | 5.55 µM and 5.29 µM |
| COc1cc(C(=O)Nc2cc(O)c(CC=C(C)C)c(O)c2)cc2c1O[C@]1(C)CC[C@@H](O)C(C)(C)[C@H]1C2 | 1.87 µM | 21.7 µM | 0.46 µM | 8.81 µM | 0.623 µM | 44.2 µM | 0.0989 µM | 13.1 µM | 3.44 µM | 37 µM | 0.143 µM | 8.21 µM | 1.05 µM | 24.6 µM | 0.0342 µM | 6.85 µM | 5.42 µM | 35.9 µM | 0.703 µM | 41.4 µM |
| COc1cc2c(cc1F)C(c1ccccc1Cl)=Nc1c(n[nH]c1C)N2 | 3.46 µM | 21 µM | 1.31 µM | 19.1 µM | 6.29 µM | 30.4 µM | 11.1 µM | 25.4 µM | 6.76 µM | 22.8 µM | 1.08 µM | 17.3 µM | 0.938 µM | 23.9 µM | 1.82 µM | 19.3 µM | 3.79 µM | 21 µM | 0.172 µM | 19.1 µM |
| Oc1cc(-n2cccn2)c(O)cc1-n1cccn1 |  | > 69.5 µM |  | > 76.1 µM |  | 51.9 µM |  | 69.3 µM |  | 83.3 µM |  | > 100 µM |  | > 100 µM |  | 31.3 µM |  | 68.4 µM |  | 31.8 µM |
| COc1cc2ncc3c(nc4sccn43)c2cc1OC | 28 µM | > 100 µM | 18.7 µM | 51.4 µM | 38.1 µM | > 100 µM | 43.8 µM | > 100 µM | 26.8 µM | 60.5 µM | 31.1 µM | > 100 µM | 28.7 µM | > 100 µM | 14.6 µM | 40.2 µM | 80.4 µM | > 100 µM | 27.2 µM | > 100 µM |
| CSc1ccc(C2=NN(C(C)=O)C(c3ccc(-c4ccc(Cl)cc4)o3)C2)cc1 (centres undefined) | 81 µM | > 100 µM | 42.4 µM | > 100 µM | 81.7 µM | > 100 µM | 77 µM | > 100 µM | > 100 µM | > 100 µM | 28.9 µM | > 100 µM | 35.2 µM | > 100 µM | 38.8 µM | > 100 µM | 86.1 µM | > 100 µM | 29.2 µM | > 100 µM |
| Fc1ccc(/C=N/n2c(-c3ccc(F)c(Cl)c3)n[nH]c2=S)cc1 | 41.5 µM | > 100 µM | 16.7 µM | 31.4 µM | 34.7 µM | > 100 µM | 30.6 µM | 83 µM | 21.8 µM | 48.3 µM | 38.7 µM | > 100 µM | 21.4 µM | 46 µM | 19.6 µM | 38.3 µM | 18.8 µM | 38.2 µM | 57.7 µM | > 100 µM |
| c1cc(N2CCN(c3ccc(C4=NCCCN4)cc3)CC2)ccc1C1=NCCCN1 | > 66.6 µM | > 100 µM | > 100 µM | > 100 µM | > 95.7 µM | > 100 µM | 99 µM | > 100 µM | > 87.8 µM | > 100 µM | > 100 µM | > 100 µM | > 80.6 µM | > 100 µM | > 100 µM | > 100 µM | 30 µM | > 100 µM |  | > 20.3 µM |
| COc1ccc(/C=C(\C)[N+](=O)[O-])cc1OC | 1.79 µM | 3.22 µM | 5.08 µM | 16.4 µM | 2.61 µM | 6.29 µM | 1.88 µM | 3.5 µM | 1.73 µM | 3.31 µM | 1.98 µM | 3.83 µM | 5.56 µM | 19.3 µM | 1.93 µM | 3.57 µM | 2.6 µM | 7.13 µM | 1.86 µM | 3.94 µM |
| Cn1ccnc1Oc1ccc(Cl)cc1 |  | 30.7 µM |  | 65.6 µM |  | 22.4 µM |  | 21.5 µM |  | 35.7 µM |  | 39.5 µM |  | > 100 µM |  | 24.7 µM |  | 39.5 µM |  | 25.1 µM |
| Cc1cc(C)c(C2CNCc3cc4c(cc32)CNCC4c2c(C)cc(C)cc2C)c(C)c1 (centres undefined) | 7.21 µg/mL | 19.8 µg/mL | 8.62 µg/mL | 22.3 µg/mL | 2 µg/mL | 4.18 µg/mL | 1.83 µg/mL | 4.27 µg/mL | 8.38 µg/mL | 20.4 µg/mL | 2.92 µg/mL | 7.4 µg/mL | 4.53 µg/mL | 15.8 µg/mL | 2.34 µg/mL | 5.26 µg/mL | 15.9 µg/mL | 30.4 µg/mL | 1.88 µg/mL | 3.84 µg/mL |
| C[C@@H]1Cc2cc(O)ccc2[C@H]2CC[C@]3(C)/C(=C/COCCN(C)C)CC[C@H]3[C@H]12 (tested in a mixture with another compound) | 0.142 µM | 0.276 µM | 0.285 µM | 0.739 µM | 0.18 µM | 0.364 µM | 0.495 µM | 2.01 µM | 0.251 µM | 0.724 µM | 0.323 µM | 0.845 µM | 0.0557 µM | 0.193 µM | 0.198 µM | 0.618 µM | 0.107 µM | 0.36 µM | 0.268 µM | 0.875 µM |
| CC(CO)(Nc1ccc([N+](=O)[O-])cc1[N+](=O)[O-])C(=O)O (centres undefined) |  | 48.9 µM |  | > 100 µM |  | > 100 µM |  | 69.2 µM |  | 89 µM |  | 55.4 µM |  | > 100 µM |  | > 100 µM |  | 62.4 µM |  | 44.9 µM |
| Oc1c(-c2cc(C(F)(F)F)[nH]n2)cc(Cl)c(OCc2ccc(Cl)cc2)c1-c1ccc(Cl)c(C(F)(F)F)c1 | 1.15 µM | 6.39 µM | 0.766 µM | 3.04 µM | 0.192 µM | 6.45 µM | 1.12 µM | 3.59 µM | 2.01 µM | 7.91 µM | 0.36 µM | 2.35 µM | 1.24 µM | 6.39 µM | 0.647 µM | 2.14 µM | 0.265 µM | 4.06 µM | 1.06 µM | 4.11 µM |
| COc1ccc2c(-c3ccnc(Nc4cccc(OC(F)(F)F)c4)n3)cnn2n1 | 1.35 µM | 17.6 µM | 1.11 µM | > 15.9 µM | 1.84 µM | 10.5 µM | 1.55 µM | > 25 µM | 3.53 µM | > 21.1 µM | 1.39 µM | 17.1 µM | 1.82 µM | 5.42 µM | 1.72 µM | 5.48 µM | 1.2 µM | 7.41 µM | 0.144 µM | 0.692 µM |
| CCN1C(=O)N(CC)C2C1NN=c1s/c(=C\c3ccc(F)cc3)c(=O)n12 (centres undefined) | 0.3 µM | > 37.8 µM | 0.287 µM | > 100 µM | 0.43 µM | > 100 µM | 42.9 µM | > 100 µM | 0.473 µM | > 100 µM | 0.425 µM | > 100 µM | 0.347 µM | > 100 µM | 0.702 µM | > 100 µM | 0.547 µM | > 100 µM | 0.0317 µM | 0.121 µM |
